Assays:
[1] = test system: Swiss Albino mice with induced infection (Staphylococcus aureus) and aseptic inflammation (turpentine); assay: Biodistribution in mice with induced infection and aseptic inflammation; assay type: in vivo; conditions: for Urine radioactivity: per sample; for blood clearance / blood radioactivity course: within 120 min
Procedure: The in vivo behavior of HPLC purified technetium-99m complexes 1′–6′ was evaluated through biodistribution studies in Swiss Albino mice (40 ± 5 g) with induced infection and aseptic inflammation. The experiment was conducted in accordance with the guidelines for the protection of animals used for scientific purposes. Mice were divided into groups and prepared for biodistribution studies by inducing infection and aseptic inflammation. Twenty-four hours prior to the injection of the technetium complexes, the left thigh muscle of each mouse was inoculated with 50 µL of a Staphylococcus aureus suspension (1 × 10^6 CFU/mL) to induce infection. Aseptic inflammation was induced in the right thigh muscle by injecting 50 µL of turpentine oil. The technetium-99m complexes were administered intravenously via the tail vein. Each mouse received an injection of 0.037 MBq of the respective technetium-99m complex. The biodistribution was studied at two different time points, 15 min and 120 min post-injection. At each time point, the mice were sacrificed under anesthesia. Blood samples were obtained by cardiac puncture. The organs of interest were collected after dissection, including the liver, heart, kidneys, stomach, intestines, spleen, muscle (normal, infected, and inflamed), lungs, pancreas, and urinary bladder. The organs were made free from adhering tissues and transferred into pre-weighed counting vials. The radioactivity of the collected samples was measured using a shielded well-type gamma counter. The results were expressed as a percentage of injected dose per gram of tissue (% ID/g). The radioactivity ratios in infected muscle to normal muscle and inflamed muscle to normal muscle were calculated to assess the specificity and selectivity of the technetium complexes for infection and inflammation.

[2] = Lipophilicity: partition between n-octanol and PBS pH 7.4; assay type: physicochemical; conditions: n-octanol/PBS pH 7.4, M: 99mTc, three determinations
Procedure: The lipophilicity of HPLC purified technetium-99m complexes 1′–6′ was determined by measuring the partition coefficient (logD7.4) between n-octanol and phosphate-buffered saline (PBS, pH 7.4) based on established literature methods and is briefly described here. An aliquot of each technetium-99m complex was added to a mixture of equal volumes (2.0 mL each) of n-octanol and PBS (pH 7.4) in a 5 mL centrifuge tube. The mixture was vigorously vortexed for 2 min and then centrifuged at 5000 rpm for 5 min to ensure complete phase separation. After centrifugation, 0.1 mL aliquots from both the n-octanol and PBS phases were sampled and their radioactivity was measured using a gamma counter. The log P was calculated using the following equation: […]. The procedure was repeated three times for each complex to ensure reproducibility.

[3] = Cysteine and histidine challenge (transchelation); assay type: physicochemical; conditions: 37 °C, 6 h
Procedure: (§1) The preparation of the ^99mTc-labeled complexes from synthesis to HPLC purification was completed within 1.5 h. Then, the stability of HPLC purified technetium-99m complexes 1′–6, with an RCP of 99% (based on HPLC), was assessed by monitoring their RCP over time and under various conditions using HPLC analysis based on established literature methods and is briefly described here.
Challenge experiments were performed by incubating the purified complexes with 10^−3 M solutions of cysteine and histidine at 37 °C. For each complex (1′–6′), 0.2 mL of the purified complex was mixed with 0.2 mL of the cysteine or histidine solution and incubated for 6 h. Aliquots were taken at the end of the incubation period and analyzed by HPLC.

[4] = Stability of HPLC-purified 99mTc complexes (HPLC); assay type: physicochemical; conditions: HPLC-purified complex, room temperature, periodic HPLC
Procedure: as §1
After purification by HPLC, the stability of the isolated technetium-99m complexes was evaluated over 6 h. The purified complexes were stored at room temperature, and aliquots were taken at 1, 3, and 6 h for HPLC analysis.

Row | Molecule | Aseptic Infl. (turpentine inflamed muscle) radioactivity ([1]; 15 min post i.v. injection) [%ID/g] | Blood radioactivity ([1]; 15 min post i.v. injection) [%ID/g] | Heart radioactivity ([1]; 15 min post i.v. injection) [%ID/g] | Infection (S. aureus infected muscle) radioactivity ([1]; 15 min post i.v. injection) [%ID/g] | Intestines radioactivity ([1]; 15 min post i.v. injection) [%ID/g] | Kidneys radioactivity ([1]; 15 min post i.v. injection) [%ID/g] | Liver radioactivity ([1]; 15 min post i.v. injection) [%ID/g] | Lungs radioactivity ([1]; 15 min post i.v. injection) [%ID/g] | Muscle (normal) radioactivity ([1]; 15 min post i.v. injection) [%ID/g] | Pancreas radioactivity ([1]; 15 min post i.v. injection) [%ID/g] | Spleen radioactivity ([1]; 15 min post i.v. injection) [%ID/g] | Stomach radioactivity ([1]; 15 min post i.v. injection) [%ID/g] | Intestines radioactivity ([1]; 120 min post i.v. injection) [%ID/g] | Kidneys radioactivity ([1]; 120 min post i.v. injection) [%ID/g] | Liver radioactivity ([1]; 120 min post i.v. injection) [%ID/g] | Lungs radioactivity ([1]; 120 min post i.v. injection) [%ID/g] | Muscle (normal) radioactivity ([1]; 120 min post i.v. injection) [%ID/g] | Pancreas radioactivity ([1]; 120 min post i.v. injection) [%ID/g] | Spleen radioactivity ([1]; 120 min post i.v. injection) [%ID/g] | LogD7.4 [2] | also measured
1 | O=C(O)c1cn(C2CC2)c2cc(N3CCN(C(=S)[S][99Tc])CC3)c(F)cc2c1=O.[C-]#[O+].[C-]#[O+].[C-]#[O+].c1ccc(P(c2ccccc2)c2ccccc2)cc1 [complex 2′, fac-[^99mTc(CO)3(Cip-DTC)(PPh3)]] | 1.21 ± 0.07 | 4.51 ± 1.32 | 1.23 ± 0.36 | 2.93 ± 0.09 | 0.14 ± 0.03 | 1.30 ± 0.13 | 32.36 ± 3.58 | 6.66 ± 1.45 | 0.90 ± 0.09 | 0.47 ± 0.20 | 38.44 ± 3.92 | 0.55 ± 0.23 | 1.08 ± 0.07 | 6.50 ± 0.36 | 27.16 ± 4.02 | 10.20 ± 0.12 | 0.68 ± 0.05 | 1.04 ± 0.04 | 37.02 ± 4.43 | 2.3 | aseptic inflammation/normal muscle ratio ([1]; 15 min post i.v. injection): 1.34; infected/normal muscle ratio ([1]; 15 min post i.v. injection): 3.29; Urine radioactivity ([1]; 15 min post i.v. injection): 3.95 ± 1.30 %ID; Aseptic Infl. (turpentine inflamed muscle) radioactivity ([1]; 120 min post i.v. injection): 0.86 ± 0.10 %ID/g; Blood radioactivity ([1]; 120 min post i.v. injection): 5.19 ± 0.81 %ID/g; Heart radioactivity ([1]; 120 min post i.v. injection): 3.97 ± 0.25 %ID/g; Infection (S. aureus infected muscle) radioactivity ([1]; 120 min post i.v. injection): 3.12 ± 0.14 %ID/g; Stomach radioactivity ([1]; 120 min post i.v. injection): 1.23 ± 0.14 %ID/g; aseptic inflammation/normal muscle ratio ([1]; 120 min post i.v. injection): 1.28; infected/normal muscle ratio ([1]; 120 min post i.v. injection): 4.62; Urine radioactivity ([1]; 120 min post i.v. injection): 4.04 ± 1.23 %ID; blood clearance / blood radioactivity course [1]: relatively stable
2 | COc1ccc(P(c2ccc(OC)cc2)c2ccc(OC)cc2)cc1.O=C(O)c1cn(C2CC2)c2cc(N3CCN(C(=S)[S][99Tc])CC3)c(F)cc2c1=O.[C-]#[O+].[C-]#[O+].[C-]#[O+] [complex 3′, fac-[^99mTc(CO)3(Cip-DTC)(TMPP)]] | 0.15 ± 0.07 | 2.54 ± 0.25 | 0.74 ± 0.32 | 0.27 ± 0.11 | 0.36 ± 0.25 | 1.40 ± 0.57 | 47.48 ± 1.30 | 9.58 ± 0.86 | – | 0.29 ± 0.13 | 33.88 ± 2.81 | 0.64 ± 0.61 | 3.52 ± 0.19 | 5.65 ± 0.78 | 27.58 ± 0.66 | 8.67 ± 0.72 | 0.34 ± 0.02 | 0.93 ± 0.20 | 23.10 ± 1.74 | 2.7 | Urine radioactivity ([1]; 15 min post i.v. injection): 0.00 ± 0.00 %ID; Aseptic Infl. (turpentine inflamed muscle) radioactivity ([1]; 120 min post i.v. injection): 0.52 ± 0.23 %ID/g; Blood radioactivity ([1]; 120 min post i.v. injection): 6.71 ± 0.50 %ID/g; Heart radioactivity ([1]; 120 min post i.v. injection): 3.48 ± 0.23 %ID/g; Infection (S. aureus infected muscle) radioactivity ([1]; 120 min post i.v. injection): 1.14 ± 0.05 %ID/g; Stomach radioactivity ([1]; 120 min post i.v. injection): 1.21 ± 0.32 %ID/g; aseptic inflammation/normal muscle ratio ([1]; 120 min post i.v. injection): 1.51; infected/normal muscle ratio ([1]; 120 min post i.v. injection): 3.32; Urine radioactivity ([1]; 120 min post i.v. injection): 0.01 ± 0.02 %ID; blood clearance / blood radioactivity course [1]: increasing
3 | CP(c1ccccc1)c1ccccc1.O=C(O)c1cn(C2CC2)c2cc(N3CCN(C(=S)[S][99Tc])CC3)c(F)cc2c1=O.[C-]#[O+].[C-]#[O+].[C-]#[O+] [complex 4′, fac-[M(CO)3(Cip-DTC)(MePPh2)]] | 0.77 ± 0.12 | 3.20 ± 0.47 | 4.36 ± 0.46 | 0.88 ± 0.15 | 1.27 ± 0.16 | 5.92 ± 0.60 | 42.11 ± 1.70 | 11.15 ± 0.19 | 0.56 ± 0.07 | 1.38 ± 0.21 | 21.59 ± 0.98 | 1.11 ± 0.50 | 7.97 ± 0.12 | 11.10 ± 0.70 | 31.09 ± 0.72 | 9.41 ± 1.15 | – | 3.21 ± 0.28 | 8.14 ± 0.93 | 1.8 | Urine radioactivity ([1]; 15 min post i.v. injection): 0.01 ± 0.00 %ID; Aseptic Infl. (turpentine inflamed muscle) radioactivity ([1]; 120 min post i.v. injection): 1.88 ± 0.26 %ID/g; Blood radioactivity ([1]; 120 min post i.v. injection): 1.48 ± 0.11 %ID/g; Heart radioactivity ([1]; 120 min post i.v. injection): 8.85 ± 0.63 %ID/g; Infection (S. aureus infected muscle) radioactivity ([1]; 120 min post i.v. injection): 2.83 ± 0.30 %ID/g; Stomach radioactivity ([1]; 120 min post i.v. injection): 2.23 ± 0.37 %ID/g; Urine radioactivity ([1]; 120 min post i.v. injection): 0.04 ± 0.03 %ID
4 | fac-[M(CO)3(Cip-DTC)(ADAP)] [complex 6′] | 1.10 ± 0.06 | 2.18 ± 0.06 | 4.27 ± 0.42 | 0.94 ± 0.09 | 3.22 ± 0.32 | 8.05 ± 0.22 | 20.95 ± 1.56 | 7.13 ± 0.35 | 1.01 ± 0.12 | 3.70 ± 0.26 | 6.40 ± 0.66 | 0.98 ± 0.29 | 10.24 ± 1.11 | 4.47 ± 0.52 | 22.98 ± 2.70 | 3.06 ± 0.10 | 0.69 ± 0.05 | 2.27 ± 0.37 | 2.55 ± 0.27 | 1.6 | Urine radioactivity ([1]; 15 min post i.v. injection): 0.37 ± 0.08 %ID; Aseptic Infl. (turpentine inflamed muscle) radioactivity ([1]; 120 min post i.v. injection): 0.66 ± 0.10 %ID/g; Blood radioactivity ([1]; 120 min post i.v. injection): 1.33 ± 0.10 %ID/g; Heart radioactivity ([1]; 120 min post i.v. injection): 1.94 ± 0.31 %ID/g; Infection (S. aureus infected muscle) radioactivity ([1]; 120 min post i.v. injection): 0.69 ± 0.09 %ID/g; Stomach radioactivity ([1]; 120 min post i.v. injection): 3.14 ± 0.69 %ID/g; Urine radioactivity ([1]; 120 min post i.v. injection): 1.49 ± 0.23 %ID
5 | fac-[M(CO)3(Cip-DTC)(DMPP)] [complex 5′] | – | – | – | – | – | – | 35.51 ± 0.97 | 9.87 ± 0.89 | 0.40 ± 0.06 | 0.83 ± 0.18 | 18.04 ± 0.73 | – | 9.98 ± 1.22 | 5.69 ± 1.44 | 31.27 ± 5.71 | 5.37 ± 0.47 | 1.34 ± 0.09 | 3.68 ± 0.48 | 7.64 ± 1.22 | 2.0 | –
6 | fac-[^99mTc(CO)3(Cip-DTC)(H2O)] [complex 1′] | – | – | – | 1.06 ± 0.20 | 0.71 ± 0.11 | 5.16 ± 0.32 | 22.05 ± 1.40 | 6.41 ± 1.14 | 0.18 ± 0.02 | 0.91 ± 0.04 | 9.79 ± 1.69 | 0.91 ± 0.20 | – | 5.76 ± 0.65 | 25.96 ± 2.23 | 4.33 ± 0.41 | 0.18 ± 0.01 | – | 5.24 ± 0.45 | 1.2 | stability in cysteine ([3]; 10^-3 M cysteine): 90%; stability in histidine ([3]; 10^-3 M histidine): 91%; blood clearance / blood radioactivity course [1]: slow blood clearance; stability post-purification (integrity, HPLC) [4]: 92%
